Calls of active or inactive are those of the source. The calls are words filed in the database; no cut-off is given here.
Tests used:
Format in all cases: protein assay
[1] = molecular target: T1, Alpha-1,2-mannosidase, putative (BT_4073) (Bacteroides thetaiotaomicron) (UniProt Q8A0E8); assay: Activity of Bacteroides thetaiotaomicron GH92 alpha-mannosidase GH92 alpha-mannosidase 4073 assessed as mannose release at 1 mM after 16 hrs by HPLC relative to untreated control after 16 hrs by HPLC
T1 sequence (whole entry): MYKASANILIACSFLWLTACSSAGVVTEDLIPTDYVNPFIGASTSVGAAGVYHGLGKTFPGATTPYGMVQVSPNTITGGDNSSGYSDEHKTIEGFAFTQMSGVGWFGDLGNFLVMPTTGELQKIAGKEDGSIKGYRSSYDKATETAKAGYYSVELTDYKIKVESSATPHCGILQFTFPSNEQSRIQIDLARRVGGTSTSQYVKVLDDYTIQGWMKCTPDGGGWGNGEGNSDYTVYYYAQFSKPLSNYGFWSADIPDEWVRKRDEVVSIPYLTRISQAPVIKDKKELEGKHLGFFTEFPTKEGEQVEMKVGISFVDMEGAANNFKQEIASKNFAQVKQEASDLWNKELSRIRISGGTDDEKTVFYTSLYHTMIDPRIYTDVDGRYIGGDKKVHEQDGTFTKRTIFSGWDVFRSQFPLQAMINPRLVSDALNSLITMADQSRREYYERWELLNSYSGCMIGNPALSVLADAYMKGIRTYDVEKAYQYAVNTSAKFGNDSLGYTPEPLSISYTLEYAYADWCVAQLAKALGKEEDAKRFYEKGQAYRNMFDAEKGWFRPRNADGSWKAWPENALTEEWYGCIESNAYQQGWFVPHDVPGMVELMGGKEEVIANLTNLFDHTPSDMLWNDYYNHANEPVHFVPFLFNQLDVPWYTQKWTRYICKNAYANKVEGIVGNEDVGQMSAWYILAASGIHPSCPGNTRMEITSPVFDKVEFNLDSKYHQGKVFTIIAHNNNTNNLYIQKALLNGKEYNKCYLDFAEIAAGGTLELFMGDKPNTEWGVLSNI

[2] = molecular target: T2, Alpha-1,2-mannosidase (BT_3994) (Bacteroides thetaiotaomicron) (UniProt Q8A0M7); assay: Activity of Bacteroides thetaiotaomicron GH92 alpha-mannosidase GH92 alpha-mannosidase 3994 assessed as mannose release at 1 mM after 16 hrs by HPLC relative to untreated control after 16 hrs by HPLC
T2 sequence (whole entry): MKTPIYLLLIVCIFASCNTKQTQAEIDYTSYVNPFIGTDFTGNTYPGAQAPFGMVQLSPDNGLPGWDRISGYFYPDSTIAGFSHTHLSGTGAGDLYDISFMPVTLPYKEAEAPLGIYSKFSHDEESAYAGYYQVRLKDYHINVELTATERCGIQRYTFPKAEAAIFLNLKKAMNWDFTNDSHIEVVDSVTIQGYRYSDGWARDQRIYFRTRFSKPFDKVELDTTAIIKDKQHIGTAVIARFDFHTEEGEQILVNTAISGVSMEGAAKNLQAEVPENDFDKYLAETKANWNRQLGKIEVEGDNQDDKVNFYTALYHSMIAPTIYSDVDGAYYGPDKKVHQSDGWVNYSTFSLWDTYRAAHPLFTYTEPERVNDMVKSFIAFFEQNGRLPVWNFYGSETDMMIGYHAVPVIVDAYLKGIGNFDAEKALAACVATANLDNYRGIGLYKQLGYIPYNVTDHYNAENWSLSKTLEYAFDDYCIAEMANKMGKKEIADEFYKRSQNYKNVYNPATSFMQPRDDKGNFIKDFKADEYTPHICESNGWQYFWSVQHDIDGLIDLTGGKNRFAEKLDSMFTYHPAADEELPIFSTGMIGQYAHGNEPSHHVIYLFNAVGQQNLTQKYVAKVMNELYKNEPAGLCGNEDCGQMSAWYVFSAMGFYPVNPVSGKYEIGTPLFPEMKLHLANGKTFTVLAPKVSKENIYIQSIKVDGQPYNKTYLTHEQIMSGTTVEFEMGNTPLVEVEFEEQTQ

[3] = molecular target: T3, Alpha-1,2-mannosidase (BT_2948) (Bacteroides thetaiotaomicron) (UniProt Q8A3K6); assay: Activity of Bacteroides thetaiotaomicron GH92 alpha-mannosidase GH92 alpha-mannosidase 2948 assessed as mannose release at 1 mM after 16 hrs by HPLC relative to untreated control after 16 hrs by HPLC
T3 sequence (whole entry): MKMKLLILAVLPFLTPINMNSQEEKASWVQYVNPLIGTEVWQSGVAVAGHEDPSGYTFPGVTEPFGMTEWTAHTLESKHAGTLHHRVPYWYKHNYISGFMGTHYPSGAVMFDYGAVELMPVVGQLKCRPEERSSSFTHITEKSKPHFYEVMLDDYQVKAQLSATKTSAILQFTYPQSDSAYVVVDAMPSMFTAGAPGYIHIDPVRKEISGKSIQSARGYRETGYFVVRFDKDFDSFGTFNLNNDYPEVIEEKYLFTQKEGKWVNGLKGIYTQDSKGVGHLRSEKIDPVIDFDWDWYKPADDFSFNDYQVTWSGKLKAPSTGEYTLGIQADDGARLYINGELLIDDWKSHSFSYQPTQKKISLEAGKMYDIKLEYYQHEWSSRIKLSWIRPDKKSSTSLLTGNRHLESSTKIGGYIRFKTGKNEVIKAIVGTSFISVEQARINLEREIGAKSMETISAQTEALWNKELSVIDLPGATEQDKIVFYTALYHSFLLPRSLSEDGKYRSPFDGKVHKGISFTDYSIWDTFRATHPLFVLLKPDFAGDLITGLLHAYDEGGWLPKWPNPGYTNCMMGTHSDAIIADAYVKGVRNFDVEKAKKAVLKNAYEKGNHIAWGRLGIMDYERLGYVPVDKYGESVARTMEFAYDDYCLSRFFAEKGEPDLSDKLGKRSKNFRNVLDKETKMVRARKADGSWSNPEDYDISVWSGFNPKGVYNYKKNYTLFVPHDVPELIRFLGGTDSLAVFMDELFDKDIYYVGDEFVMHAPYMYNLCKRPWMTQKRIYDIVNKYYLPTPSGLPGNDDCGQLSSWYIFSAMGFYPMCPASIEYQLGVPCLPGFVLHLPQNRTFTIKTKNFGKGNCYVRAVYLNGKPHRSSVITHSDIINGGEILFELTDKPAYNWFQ

SMILES | Activity [1] | Activity [2] | Activity [3]
OC[C@H]1O[C@H](OC[C@H]2O[C@H](O)[C@@H](O)[C@@H](O)[C@@H]2O)[C@@H](O)[C@@H](O)[C@@H]1O | inactive | inactive | inactive
OC[C@H]1O[C@H](O[C@H]2[C@H](O)[C@H](O)[C@@H](O)O[C@@H]2CO)[C@@H](O)[C@@H](O)[C@@H]1O | 100% | 20% | inactive
OC[C@H]1O[C@H](O[C@H]2[C@@H](O)[C@H](O)[C@@H](CO)O[C@@H]2O)[C@@H](O)[C@@H](O)[C@@H]1O | inactive | inactive | inactive
OC[C@H]1O[C@H](O[C@@H]2[C@H](O)[C@@H](O)O[C@H](CO)[C@H]2O)[C@@H](O)[C@@H](O)[C@@H]1O | inactive |  | inactive
